System: P. falciparum 3D7 growth, pLDH absorbance
Test: blood-stage malaria parasite growth potency – strain 3D7, dose response (AID 2305)

Nc1c2c(nc3ccc(NC(=O)Cc4ccccc4)cc13)CCCC2
IC50: 760 nM

C=CCOc1ccc(CNC2CCN(Cc3ccccc3)CC2)cc1Br
IC50: 1420 nM

CC1(CCCCN2CCC(Cc3ccccc3)CC2)C(=O)Nc2ccccc21 (stereo unspecified)
IC50: 860 nM

CCOc1cc2c(cc1S(=O)(=O)c1ccc(COc3ccc(C(F)(F)F)cc3)cc1)CCN(C)CC2
IC50: 1020 nM

COc1ccc(CCc2ccc(-c3c(C)[nH]c(C)c(Cl)c3=O)cc2)cc1
IC50: 20 nM

Cc1ccccc1C1CCN(C2CCC(NC(=O)c3ccc(-c4ccccc4)s3)CC2)CC1 (stereo unspecified)
IC50: 660 nM

COc1ccc(CN2CCCC(OC(c3ccc(F)cc3)c3ccc(F)cc3)C2)c(O)c1 (stereo unspecified)
IC50: 610 nM

CCOC(=O)C1=C(C)N=c2sc(=Cc3cc(Cl)ccc3O)c(=O)n2C1c1cc(OC)c(OC)cc1Br (stereo unspecified)
IC50: 990 nM

CNC(=O)NC1CCN(Cc2c(-c3cccs3)nc3ccccc3c2C(=O)N[C@@H](C)C2CCCCC2)CC1
IC50: 220 nM

NC1CCCN(Cc2cccc(-c3ccc(-c4nc5ccc(C(F)(F)F)cc5[nH]4)cc3)c2)C1 (stereo unspecified)
IC50: 520 nM

COc1cc(OC)c2c(C)cc(NCCCn3ccnc3)nc2c1
IC50: 800 nM

N#Cc1ccc2c(c1)CCN(CCC1CCC(NC(=O)Nc3ccnc4ccccc34)CC1)C2 (stereo unspecified)
IC50: 380 nM

NC(N)=NC(=O)Nc1ccc(Cl)c(C(F)(F)F)c1
IC50: 590 nM

CC(C)CCNC(=O)C1Cc2c([nH]c3cc(Br)ccc23)C2(CCN(CCc3ccccc3)CC2)N1 (stereo unspecified)
IC50: 910 nM

C=CCN1C(=O)c2[nH]nc(-c3cc(C)c(C)cc3O)c2C1c1cccc(Br)c1 (stereo unspecified)
IC50: 1160 nM

CC1=C(C(=O)OCCOCc2ccccc2)C(c2ccccc2C(F)(F)F)C(C(=O)OCCOCc2ccccc2)=C(C)N1
IC50: 530 nM

O=C(Cc1cccc2ccccc12)NC1CCN(c2ccnc3cc(Cl)ccc23)C1 (stereo unspecified)
IC50: 250 nM

NC(=O)c1c(Cl)nc2ccccc2c1Cl
IC50: 960 nM

O=C(Nc1ccc(Cl)cc1)Nc1ccc(-c2ccc(-c3nc4ccccc4[nH]3)cc2)cc1
IC50: 50 nM

COc1cc2nc(N(C)C3CCN(Cc4ccccc4)CC3)nc(N)c2cc1OC
IC50: 330 nM

COc1cc2nc(N3CCC(CNC(=O)c4ccc(-c5ccccc5)cc4)CC3)nc(N)c2cc1OC
IC50: 570 nM

Cc1cc(NN=Cc2ccccc2F)c2cccc(C)c2n1
IC50: 760 nM

CNCCNCc1ccc(-c2ccc(-c3nc4c(C)cccc4[nH]3)cc2)cc1
IC50: 670 nM

COc1cc(F)c2ncc(Cl)c([C@@H](O)CN3CCC(NCc4ccc5c(n4)NC(=O)CO5)CC3)c2c1
IC50: 120 nM

COc1ccc2nccc([C@@H](O)CN3CCC(NCc4ccc(OC)c(NC(C)=O)c4)CC3)c2c1
IC50: 840 nM

CCCCCn1c(Sc2ccc(C#N)c([N+](=O)[O-])c2)nnc1-c1cc(OC)cc(OC)c1
IC50: 960 nM

FC(F)(F)c1ccc2nc(-c3cccc(-c4cccc(CNCCc5ccncc5)c4)c3)[nH]c2c1
IC50: 140 nM

Oc1ccc(CN2CCC(NCc3cccc4ccccc34)CC2)cc1
IC50: 1200 nM

Cc1cc2[nH]c(-c3ccc(C(=O)NCCCN4CCN(c5cccc(Cl)c5)CC4)s3)nc2cc1Cl
IC50: 650 nM

COc1cccc(OC)c1OCCCOc1c(C)nc(N)nc1N
IC50: 460 nM

CCCCNc1cc(NCCCC)c2c(n1)[nH]c1ccccc12
IC50: 570 nM

Cc1cc(N2CCOCC2)nc(Nc2ccc(NC(=O)c3cccc4ccccc34)cc2)n1
IC50: 1300 nM

COc1ccc(C=Cc2cc(N)c3ccccc3n2)cc1
IC50: 970 nM

Cc1cccc(NC(=O)c2cnc(N3CCN(c4ccncc4)CC3)c(Cl)c2)c1
IC50: 680 nM

CCn1c(-c2nonc2N)nc2c(C#CC(C)(C)O)ncc(OCCNCCc3ccc(OC)cc3)c21
IC50: 960 nM

Oc1ccc2c(CNC3CCCCC3)c(O)ccc2c1CNC1CCCCC1
IC50: 40 nM

CCCc1cc(Cc2cnc(N)nc2N)cc(CCC)c1OCCCCC(=O)O
IC50: 200 nM

COc1ccc2nccc([C@@H](O)CN3CCC(NCc4nc5c(F)cccc5[nH]4)CC3)c2c1
IC50: 470 nM

CCCCCCN1CCCN(Cc2cccc(NC(=O)c3cc4ccccc4s3)c2)CC1
IC50: 660 nM

Cc1ccc(CNC(=O)c2cc3c(=O)n4ccccc4nc3n(CCCN3CCOCC3)c2=N)cc1
IC50: 1090 nM

Cc1nc(NCc2ccccc2)cc(NCC(O)c2ccc(O)cc2)n1 (stereo unspecified)
IC50: 1230 nM

COc1ccc(C2C(C(=O)Nc3cc(Cl)c(OC)cc3OC)c3ccccc3C(=O)N2C)cc1 (stereo unspecified)
IC50: 820 nM

C[C@H](Cc1ccc(OCCCOc2ccc(C[C@@H](C)NC[C@H](O)c3cccc(Cl)c3)cc2)cc1)NC[C@H](O)c1cccc(Cl)c1
IC50: 780 nM

COc1ccc(NC(=O)[C@H](CC(C)C)Nc2cc(C)nc(NCC3CCCCC3)n2)cc1
IC50: 1100 nM

c1ccc(-n2ncc(CNCc3ccc(-c4cccc(-c5nc6ccccc6[nH]5)c4)cc3)n2)cc1
IC50: 1230 nM

CCNc1cc(C(=O)N[C@@H](Cc2ccccc2)[C@H](O)CNCc2cccc(OC)c2C)cc(N2CCCCS2(=O)=O)c1
IC50: 520 nM

FC(F)(F)c1ccc2nc(-c3ccc(-c4ccc(CNCC5CCCO5)cc4)s3)[nH]c2c1 (stereo unspecified)
IC50: 160 nM

CCOC(=O)c1ccc(-c2c(C(F)(F)F)noc2-c2cc(CC)c(OC)cc2O)o1
IC50: 210 nM

Cc1nc2ccc3ccc(CN(C)c4ccc(C(=O)N[C@@H](CCC(=O)O)C(=O)O)cc4)cc3c2c(=O)[nH]1
IC50: 880 nM

COc1cc(-c2nc(-c3ccccc3)c(-c3ccccc3)[nH]2)ccc1OCCN(C)C
IC50: 300 nM

Cc1[nH]c(C)c(-c2ccc(OCc3ccc(OC(F)(F)F)cc3)nc2)c(=O)c1Br
IC50: 140 nM

COc1ccc(CCNCCCCCCNCCc2ccc(OC)c(OC)c2Cl)c(Cl)c1OC
IC50: 900 nM

O=C(NCCN1CCCC1)c1ccc(-c2ccc(-c3nc4ccccc4[nH]3)s2)cc1
IC50: 940 nM

CN(C(=O)/C=C/c1c(Cl)cccc1Cl)C1CCN(CCCCCNC(=O)/C=C/c2ccc(Cl)c(Cl)c2)CC1
IC50: 360 nM

CCN(CC)CCN(Cc1ccc(-c2ccc(C(F)(F)F)cc2)cc1)C(=O)Cn1c(CCc2ccc(F)c(F)c2F)nc(=O)c2cccnc21
IC50: 1130 nM

CN(C(=O)c1ccccc1)[C@@H]1c2cc(C#N)ccc2OC(C)(C)[C@H]1O
IC50: 650 nM

O=S1(=O)NC2(CCN(CCc3ccc(Cl)cc3)CC2)Nc2cc(F)cc(F)c21
IC50: 1460 nM

CNCCNCc1ccc(-c2ccc(-c3nc4ccc(F)cc4[nH]3)cc2)cc1
IC50: 390 nM

CC(C)[C@H](NC(=O)c1ccc(O)c(-c2ccc(Cl)c(Cl)c2)c1)C(=O)NCCN(C)C
IC50: 1050 nM

COc1ccc(Cl)cc1N1CCN(CCCNC(=O)c2ccc(-c3nc4cc(Cl)c(C)cc4[nH]3)c(F)c2)CC1
IC50: 180 nM

Cc1cc(C)cc(Oc2c(C(F)(F)F)oc3c(CN4CC(C)OC(C)C4)c(O)ccc3c2=O)c1 (stereo unspecified)
IC50: 940 nM

COc1cc(CNCCCNc2cc(=O)c3ccccc3[nH]2)c2c(c1)C(C)CN2C(=O)OC(C)(C)C (stereo unspecified)
IC50: 730 nM

O=C(Nc1ccc(C(=O)OC[C@@H]2CCCN3CCCC[C@H]23)cc1)c1ccc([N+](=O)[O-])cc1
IC50: 720 nM

CCCCCCSc1nnc(COc2cccc3ccccc23)n1-c1ccc(OC)cc1
IC50: 50 nM

O=C(NC1CCC(N2CCC(O)(c3ccc(F)cc3)CC2)CC1)c1cc2ccccc2[nH]1 (stereo unspecified)
IC50: 740 nM

COc1ccc2cc(-c3nc(-c4c(Cl)cccc4Cl)[nH]c3-c3ccnc(NCCC4CCCN4C)c3)ccc2c1 (stereo unspecified)
IC50: 1030 nM

FC(F)(F)c1ccc2c(C=Cc3ccncc3)c[nH]c2c1
IC50: 710 nM

COc1ccc(Nc2ncc(OC)c(Nc3ccccc3C(N)=O)n2)cc1N1CCN(C)CC1
IC50: 740 nM

COc1ccc2nccc(N3CCC(CCNCc4ccc5c(n4)NC(=O)CO5)CC3)c2c1
IC50: 700 nM

COc1cc2nc(N3CCC(CNCc4ccc(-c5ccc(C(F)(F)F)cc5)cc4)CC3)nc(N)c2cc1OC
IC50: 90 nM

Cc1cccc(-c2ccc(NC(=O)C3CCN(Cc4cccc(O)c4)CC3)cc2)c1
IC50: 980 nM

Cc1cccn2c(=O)c3cc(C(=O)NCc4cccnc4)c(=N)n(CCc4ccccc4)c3nc12
IC50: 710 nM

FC(F)(F)c1ccc2nc(-c3ccc(-c4cccc(CNCc5cnn(-c6ccccc6)n5)c4)s3)[nH]c2c1
IC50: 330 nM

COc1cc(OCCCN(C)Cc2ccc(OC)c(OC)c2)ccc1NC(=O)c1cccc2c(=O)c3cccc(F)c3[nH]c12
IC50: 890 nM

CN1CC(c2ccc(Cl)c(Cl)c2)OC1=N (stereo unspecified)
IC50: 280 nM

Cn1cncc1-c1ccc2ncnc(Nc3ccc4c(cnn4Cc4ccccc4)c3)c2c1
IC50: 180 nM

CCC1CN2CCc3c([nH]c4ccc(OC)cc34)[C@@H]2C[C@@H]1CC1NCCc2cc(OC)c(OC)cc21 (stereo partly specified)
IC50: 860 nM

COc1ccccc1NC(=O)Nc1cccc(-c2cccc(-c3nc4c(C)cccc4[nH]3)c2)c1
IC50: 100 nM

O=C(/C=C/c1ccc(Cl)c(Cl)c1)NCCCCCN1CCN(C(=O)Nc2ccc(Cl)c(C(F)(F)F)c2)CC1
IC50: 820 nM

COc1cccc(C2CCN(CCCCNC(=O)c3ccc(NC(=O)c4ccc(Cl)cc4)cc3)CC2)c1
IC50: 960 nM

Cc1cc(OCCCN2CCC(NS(=O)(=O)c3ccc(Cl)c(Cl)c3)C2)c2ccccc2n1 (stereo unspecified)
IC50: 1050 nM

Cc1cc(F)ccc1[C@H]1CNCCN1C(=O)N(C)C(C)(C)c1cc(C(F)(F)F)cc(C(F)(F)F)c1
IC50: 590 nM

COC(=O)/C=C/c1ccc(CC(C)NCC(O)c2cccc(C(F)(F)F)c2)cc1 (stereo unspecified)
IC50: 770 nM

COc1ccc2ncc(F)c([C@@H](O)CN3CCC(NCc4cc5c(cn4)OCCO5)CC3)c2c1
IC50: 140 nM

O=C(/C=C/c1ccc(Cl)c(Cl)c1)N1CCN(C(=O)Nc2ccc(F)c(Cl)c2)CC1
IC50: 720 nM

O=C(NCCCN1CCC(Cc2ccccc2)CC1)c1cc2c(Cl)nc3ccccc3c2s1
IC50: 740 nM

COc1cc(NC(=O)CCCN2CCN(c3cccc(Cl)c3Cl)CC2)ccc1N1CCN(C(C)C)CC1
IC50: 950 nM

Cc1nnc2c(NC(=O)NC3CCCC3)cc3cc(-c4ccc(CN5CCCCC5)cc4)ccc3n12
IC50: 950 nM

O=C(Nc1ccc(-c2cccc(CN3CCC(O)CC3)c2)cc1)c1cccc(Cl)c1
IC50: 830 nM

N#Cc1ccc(N(CCOc2ccc3c(c2)CCC(=O)N3)Cc2ccccc2C(F)(F)F)cc1C(F)(F)F
IC50: 760 nM

Fc1ccc2nccc(NN=CC=Cc3ccccc3)c2c1
IC50: 680 nM

Cc1ccc(O)cc1Nc1ccnc2ccc(C(C)(C)C)cc12
IC50: 1250 nM

c1ccc2[nH]c(CN(Cc3nc4ccccc4[nH]3)Cc3nc4ccccc4[nH]3)nc2c1
IC50: 670 nM

CN1CCN(CC(=O)Nc2cccc(-c3cccc(-c4nc5ccccc5[nH]4)c3)c2)CC1
IC50: 1290 nM

Cc1noc(C)c1-c1ccc2c(Nc3ccccc3C(C)(C)C)c(C(=O)NC3CCCC3)cnc2c1
IC50: 1040 nM

N#Cc1cccc(CN(Cc2ccc(Cl)c(Cl)c2)S(=O)(=O)c2cccc([N+](=O)[O-])c2)c1
IC50: 810 nM

Reference: PubChem BioAssay AID2305 (GlaxoSmithKline (GSK), 2010)
